Measured values as given in article PMC5556071, “ATR inhibition facilitates targeting of leukemia dependence on convergent nucleotide biosynthetic pathways” (Nature Communications, 2017).
Several values for one entry are separate records, joined by “and”; a condition that tells them apart may be missing. Equal values may be shown once.

Test system: CEM cells
Assay: Non-targeted LC-MS metabolite profiling: percent [13C6]glucose labeling and relative metabolite levels
Assay type: cell-based, human
Conditions: CEM cells, 12 h following release from G1 arrest, replicates #1-#6
Description: To further investigate the functions of dCK and ATR at the G1/S transition in CEM cells, a non-targeted liquid chromatography mass spectrometry (LC-MS) assay was used to determine the utilization of labeled [^13C6]glucose and [^13C9,^15N3]deoxycytidine, the main substrates for de novo and salvage nucleotide biosynthesis, respectively. Of the 166 metabolites identified in CEM cells treated with VE-822 and/or dCKi, 105 metabolites found in all four treatment groups contained glucose-derived ^13C atoms. […] These metabolites included intermediates such as rUTP, rCTP and rCDP in the de novo dCTP biosynthesis (Fig. 1d). […] However, several deoxyribonucleotides, including dCTP, were below the limit of detection of the non-targeted LC-MS approach, raising the concern that the sensitivity of this assay is not sufficient to measure the contribution of the salvage pathway or the ratio of de novo and salvage biosynthesis to these pools. To address this problem, a newly developed targeted MS assay was developed (Fig. 1e and Supplementary Fig. 3). In this assay, samples containing either extracted dNTPs or hydrolyzed DNA from labeled cells are separated by LC for detection by a triple quadrupole mass spectrometer using multiple reaction monitoring (LC-MS/MS-MRM). The first (Q1) and third (Q3) quadrupoles function as mass filters, while the second (Q2) quadrupole serves as a collision chamber (Fig. 1e). For instance, to profile the biosynthetic composition of deoxycytidine (dC) derived from hydrolyzed DNA or dCTP, an intact, protonated dC ion is selected in Q1, followed by fragmentation of the glycosidic bond, which releases protonated cytosine in Q2, that is filtered in Q3 and detected to generate an ion chromatogram. The peak areas for the ion chromatograms of salvage [^13C9,^15N3]dC (red trace), de novo [^13C5]dC (black trace, from [^13C6]glucose) and unlabeled dC (gray trace) (Fig. 1e) are used to determine the relative contributions of the de novo and salvage routes both to dCTP pools and to DNA-incorporated dCTP.
Cells were transferred into RPMI-1640 without glucose and supplemented with 10% dialyzed FBS (Gibco) containing the following labeled substrates: precursors for de novo [U-^13C6]glucose (Sigma-Aldrich, 389374) at 11 mM; precursors for purine salvage [U-^13C10,^15N5]dA (Cambridge Isotopes, CIL 3896), [^15N5]dA (Cambridge Isotopes, NLM-3895) and [^15N5]dG (Cambridge Isotopes, NLM-3899) at 5 µM or as indicated; and precursors for pyrimidine salvage: [U-^13C9,^15N3]dC (Silantes, 124603602) and [U-^13C10,^15N2]dT (Cambridge Isotopes, CNLM-3902) at 5 µM and [^15N2]orotate (Cambridge Isotopes, NLM-1048) at indicated concentrations. The cells were incubated for 12 h or as indicated before sample collection and processing. […]
Non-targeted LC-MS metabolic assays. 1 x 10^6 cells were washed with ice-cold 150 mM ammonium acetate twice before adding 1 mL of ice-cold 80% methanol with 10 nM norvaline as an internal standard. After vigorous vortexing, samples were centrifuged at maximum speed, the aqueous layer was transferred to a glass vial and the metabolites were dried under vacuum. Metabolites were resuspended in 50 μL 70% acetonitrile (ACN) and 5 μL of this solution used for the mass spectrometer-based analysis. The analysis was performed on a Q Exactive (Thermo Scientific) in polarity-switching mode with positive voltage 4.0 kV and negative voltage 4.0 kV. The mass spectrometer was coupled to an UltiMate 3000RSLC (Thermo Scientific) UHPLC system. Mobile phase A was 5 mM ammonium acetate (NH4AcO), pH 9.9, B was acetonitrile and the separation achieved on a Luna […] NH2 100 A column (150 × 2.0 mm, Phenomenex). The flow was 200 μL/min, and the gradient ran from 15% A to 95% A in 18 min, followed by an isocratic step for 9 min and re-equilibration for 7 min. Metabolites were detected and quantified as area under the curve based on retention time and accurate mass (≤ 3 p.p.m.) using the TraceFinder 3.1 (Thermo Scientific). Relative amounts of […]

[1] = metabolite Asn (C00152), listed as D
[2] = metabolite Asp (C00049), listed as D
[3] = metabolite Carnitine (C00318), listed as D
[4] = metabolite G3P (KEGG C00118), listed as D
[5] = metabolite G6P-F6P (KEGG C00668), listed as D
[6] = metabolite GABA (KEGG C00334), listed as D
[7] = metabolite GDP (KEGG C00035), listed as D
[8] = metabolite GMP (KEGG C00144), listed as D
[9] = metabolite GSH (KEGG C00051), listed as D
[10] = metabolite GSSG (KEGG C00127), listed as D
[11] = metabolite GTP (KEGG C00044), listed as D
[12] = metabolite Glc (KEGG C00031), listed as D
[13] = metabolite GlcA (KEGG C00257), listed as D
[14] = metabolite GlcN-6P (KEGG C00352), listed as D
[15] = metabolite GlcNAc-6P (KEGG C00357), listed as D
[16] = metabolite Gln (KEGG C00064), listed as D
[17] = metabolite Glu (KEGG C00025), listed as D
[18] = metabolite GlucA (KEGG C00191), listed as D
[19] = metabolite Gly (KEGG C00037), listed as D
[20] = metabolite Glycerol (KEGG C00116), listed as D
[21] = metabolite Glycerol-2-P (KEGG C02979), listed as D
[22] = metabolite Glycerol-3-P (KEGG C00093), listed as D
[23] = metabolite His (KEGG C00135), listed as D
[24] = metabolite Homocysteine (KEGG C00155), listed as D
[25] = metabolite Hypoxanthine (KEGG C00262), listed as D
[26] = metabolite IMP (KEGG C00130), listed as D
[27] = metabolite Inosine (KEGG C00294), listed as D
[28] = metabolite a-KG (C00026), listed as D

SMILES: COc1ccc(-c2nc([C@@H](C)Sc3nc(N)cc(N)n3)c(C)s2)cc1OCCNS(C)(=O)=O [dCKi]
- Relative level, Arg-Succ (metabolite Arg-Succ (C03406), listed as D): 1.1 and 1.2 and 1.4 and 0.428 and 0.458 and 0.6
- Glucose labeling, Asn [1]: 0.000993% and 2.77e-6% and 0.00524% and 0.00322% and 0.000183% and 2.2e-6%
- Relative level, Asn [1]: 1.1 and 1.3 (2×) and 0.8 and 0.7 and 0.85
- Glucose labeling, Asp [2]: 24.08% and 25.99% and 25.39% and 25.08% and 25.80% and 25.92%
- Relative level, Asp [2]: 0.9 (3×) and 1.1 and 0.5 and 0.6
- Glucose labeling, C (metabolite C (D07769), listed as D): 0.44% (4×) and 0.15% and 0.31%
- Relative level, C (metabolite C, listed as D): 1.0 and 1.2 and 1.3 (2×) and 1.4 and 1.1
- Glucose labeling, Carnitine [3]: 0.0041% and 0.00586% and 0.00566% and 0.00463% and 0.00467% and 0.00476%
- Relative level, Carnitine [3]: 1.0 and 1.1 (2×) and 0.9 (2×) and 0.843
- Glucose labeling of G3P [4]: 100.00% (3×) and 0.0369% (3×)
- Relative level of G3P [4]: 0.316 and 1.2 and 0.237 and 0.232
- Glucose labeling of G6P-F6P [5]: 57.18% and 69.30% and 72.35% and 21.95% and 56.24% and 64.94%
- Relative level of G6P-F6P [5]: 0.6 and 0.7 and 1.0 and 0.163 and 0.339 and 0.4
- Glucose labeling of GABA [6]: 0.0266% and 0.0568% and 0.0445% and 0.0322% and 0.0737% (2×)
- Relative level of GABA [6]: 1.2 and 1.4 and 1.5 and 0.6 and 0.5 and 0.466
- Glucose labeling of GDP [7]: 100.00% (2×) and 89.71% and 79.16% and 66.81% and 77.84%
- Relative level of GDP [7]: 0.278 and 0.74 and 2.1 and 0.0943 and 0.533
- Glucose labeling of GMP [8]: 82.17% and 84.38% and 86.57% and 100.00% and 55.56% and 83.28%
- Relative level of GMP [8]: 1.0 (2×) and 2.5 and 0.177 and 0.7
- Glucose labeling of GSH [9]: 24.91% and 25.95% and 26.01% and 22.52% and 20.58% and 22.91%
- Relative level of GSH [9]: 0.8 and 1.1 and 1.4 and 0.2 and 0.245 and 0.4
- Glucose labeling of GSSG [10]: 44.73% and 47.85% and 45.35% and 40.72% and 38.47% and 41.79%
- Relative level of GSSG [10]: 1.0 (2×) and 1.3 and 1.5 and 0.364 and 0.7
- Glucose labeling of GTP [11]: 88.53% and 93.02% and 84.10% and 100.00% and 95.85% and 82.17%
- Relative level of GTP [11]: 0.137 and 0.6 and 1.3 and 0.0117 and 0.173 and 0.5
- Glucose labeling of Glc [12]: 48.02% and 85.76% and 96.57% and 84.10% and 87.56% and 88.93%
- Relative level of Glc [12]: 0.632 and 1.4 and 6.6 and 1.5 and 2.2 and 2.0
- Glucose labeling of GlcA [13]: 38.48% and 42.08% and 42.11% and 29.34% and 32.69% and 34.11%
- Relative level of GlcA [13]: 1.0 (2×) and 1.4 and 0.4 and 0.5 and 0.7
- Glucose labeling of GlcN (metabolite GlcN (KEGG C00329)): 0.18%
- Relative level of GlcN (metabolite GlcN (KEGG C00329), listed as D): 1.4 and 0.948 and 0.9 (2×) and 1.0 and 0.8
- Glucose labeling of GlcN-6P [14]: 6.04% and 8.63% and 7.74% and 8.56% and 9.86% and 9.69%
- Relative level of GlcN-6P [14]: 0.8 and 0.847 and 1.1 and 0.743 and 0.7 and 1.0
- Glucose labeling of GlcNAc-6P [15]: 12.90% and 10.87% and 25.06% and 34.14% and 41.68% and 27.99%
- Relative level of GlcNAc-6P [15]: 0.636 and 0.8 and 1.2 and 0.212 and 0.6 (2×)
- Glucose labeling of Gln [16]: 0.24% and 0.28% (4×) and 0.29%
- Relative level of Gln [16]: 1.0 (2×) and 1.2 and 1.3 and 0.9 (2×)
- Glucose labeling of Glu [17]: 30.50% and 31.50% and 31.06% and 32.25% and 32.69% and 32.43%
- Relative level of Glu [17]: 1.0 and 1.1 and 1.2 and 0.6 (2×) and 0.751
- Glucose labeling of GlucA [18]: 0.47% and 1.38% and 1.95% and 0.76% and 1.61% and 0.18%
- Relative level of GlucA [18]: 1.5 and 0.9 and 1.3 and 0.635 and 0.563 and 0.7
- Glucose labeling of Gly [19]: 5.78% and 6.19% and 5.38% and 3.11% and 3.32% and 3.83%
- Relative level of Gly [19]: 1.1 and 1.3 and 1.2 (2×) and 0.9 and 0.854
- Glucose labeling of Glycerol [20]: 0.0257% and 0.0369% (2×) and 0.03% and 0.00165% and 0.0279%
- Relative level of Glycerol [20]: 0.8 (2×) and 0.7 and 1.5 and 2.6 and 2.4
- Glucose labeling of Glycerol-2-P [21]: 12.49% and 5.31% and 20.27% and 20.32% and 0.0369% and 11.49%
- Relative level of Glycerol-2-P [21]: 0.6 and 0.5 and 1.9 and 0.0423 and 0.16 and 0.346
- Glucose labeling of Glycerol-3-P [22]: 15.24% and 16.29% and 15.98% and 18.03% and 18.16% and 17.98%
- Relative level of Glycerol-3-P [22]: 1.0 and 0.9 (2×) and 0.7 (2×) and 0.656
- Glucose labeling of HS2O3 (metabolite HS2O3 (KEGG C00320)): 100.00%
- Relative level of HS2O3 (metabolite HS2O3 (KEGG C00320), listed as D): 0.9 (2×) and 1.0 and 0.8 and 1.1 (2×)
- Glucose labeling of His [23]: 0.00% (5×) and 1.11e-14%
- Relative level of His [23]: 1.2 and 1.3 and 1.5 and 0.76 and 0.6 and 0.7
- Glucose labeling of Homocysteine [24]: 0.022% and 0.0737% and 0.000309% and 0.01% and 0.000455% and 0.23%
- Relative level of Homocysteine [24]: 2.7 and 0.5 and 1.5 (2×) and 3.4 and 0.855
- Glucose labeling of Hypoxanthine [25]: 0.00941% and 0.12% (4×) and 0.06%
- Relative level of Hypoxanthine [25]: 2.0 and 0.2 and 1.0 and 1.3 (2×) and 2.9
- Glucose labeling of IMP [26]: 93.29% and 98.06% and 95.55% and 100.00% and 94.31% and 97.32%
- Relative level of IMP [26]: 0.7 and 0.8 and 1.6 and 0.111 and 0.323 and 0.6
- Glucose labeling of Inosine [27]: 0.55% (4×) and 100.00% and 49.07%
- Relative level of Inosine [27]: 0.5 and 0.547 and 0.3 and 0.568 and 0.6
- Glucose labeling of Inositol (metabolite Inositol (KEGG C00137)): 0.00%
- Relative level of Inositol (metabolite Inositol (KEGG C00137), listed as D): 1.0 (2×) and 1.6 (2×) and 1.1 (2×)
- Glucose labeling, a-KG [28]: 4.27% and 11.78% and 16.08% and 0.12% (2×) and 4.73%
- Relative level, a-KG [28]: 0.7 and 1.1 and 2.3 and 0.0795 and 0.14 and 0.259
